The results in this text go back to ChEMBL document CHEMBL1140259, “Isomeric thiazole derivatives as ligands for the neuropeptide Y5 receptor” (Bioorg Med Chem Lett, 2005).

The term IC50 denotes the point on the concentration scale where inhibition reaches its midpoint. The low end stands for greater potency in that assay, the high end for weaker potency in that assay. As a reminder, the inhibition is the drop in the measured response relative to a control, in per cent. Low readings indicate a weak effect, high ones a strong effect.

SMILES strings stand for the structures.

The target in experiment [1] is T1, Neuropeptide Y receptor type 5 (Mus musculus, UniProt O70342).
T1 sequence (O70342 whole entry): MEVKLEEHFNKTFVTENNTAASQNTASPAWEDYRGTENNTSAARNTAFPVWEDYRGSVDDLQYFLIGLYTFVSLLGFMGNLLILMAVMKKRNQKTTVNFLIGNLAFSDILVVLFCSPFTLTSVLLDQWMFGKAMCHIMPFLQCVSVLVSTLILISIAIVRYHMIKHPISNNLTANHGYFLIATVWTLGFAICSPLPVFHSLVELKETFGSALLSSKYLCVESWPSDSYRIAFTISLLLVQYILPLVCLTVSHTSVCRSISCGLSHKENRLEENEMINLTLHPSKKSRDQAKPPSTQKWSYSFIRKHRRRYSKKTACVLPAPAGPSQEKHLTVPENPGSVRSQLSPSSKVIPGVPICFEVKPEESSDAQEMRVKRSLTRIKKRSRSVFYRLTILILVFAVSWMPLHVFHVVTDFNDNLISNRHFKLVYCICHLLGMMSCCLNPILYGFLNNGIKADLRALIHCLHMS
In words: Inhibitory concentration against mouse NPY5 receptor […].

For experiment [2], the target named is T2, Neuropeptide Y receptor type 5 (Mus musculus) (UniProt O70342).
T2 sequence (whole entry): T1 sequence (O70342 whole entry)
Kind of experiment: Percent inhibition against mouse NPY5 receptor at 1 um.

Compound `COc1cccc(S(=O)(=O)NCCCNc2ncc(C(=O)c3ccccc3C)s2)c1` returned an IC50 in experiment [1] of 11 nM.

As to `COc1ccc(C)cc1S(=O)(=O)NCCCNc1ncc(C(=O)c2ccccc2C)s1`, the midpoint of inhibition in experiment [1], the IC50, lay at 0.71 nM.

As for `Cc1ccccc1C(=O)c1csc(NCCCNS(=O)(=O)c2cccs2)n1`, the half-maximal inhibitory concentration (IC50) in experiment [1] is 11 nM.

For `COc1cccc(S(=O)(=O)NCCCNc2nc(C(=O)c3ccccc3C)cs2)c1`, the inhibition in experiment [2] worked out at 12%.

`COc1ccc(OC)c(S(=O)(=O)NCCCNc2ncc(C(=O)c3ccccc3C)s2)c1`: the IC50 in experiment [1] turned out to be 1.6 nM. That is a single-digit nanomolar value.

In the case of `Cc1ccccc1C(=O)c1cnc(NCCCNS(=O)(=O)c2cccs2)s1`, in experiment [1], 1 nM corresponded to half-maximal inhibition (IC50).

In experiment [1], `Cc1ccccc1C(=O)c1cnc(NCCCNS(=O)(=O)c2cccc(F)c2)s1` displayed an IC50 of 5.5 nM. Against the preceding compound, the IC50 is about 5.5-fold higher.

Compound `Cc1ccccc1C(=O)c1cnc(NCCCNS(=O)(=O)c2ccc(F)cc2)s1` yielded an IC50 in experiment [1] of 9900 nM.

For the compound `Cc1ccccc1C(=O)c1csc(NCCCNS(=O)(=O)c2ccc(F)cc2)n1`, the inhibition in experiment [2] was 16%.

Regarding `Cc1ccccc1C(=O)c1cnc(NCCCNS(=O)(=O)c2cc(C(F)(F)F)ccc2Cl)s1`, in experiment [1], the IC50 came out at 0.85 nM.

In experiment [1], `Cc1ccccc1C(=O)c1csc(NCCCNS(=O)(=O)c2cc(C(F)(F)F)ccc2Cl)n1` displayed an IC50 of 9 nM.

`Cc1ccccc1C(=O)c1csc(NCCCNS(=O)(=O)c2cccc(F)c2)n1` showed a half-maximal inhibitory concentration (IC50) in experiment [1] of 64 nM.

In experiment [1], `COc1ccc(OC)c(S(=O)(=O)NCCCNc2nc(C(=O)c3ccccc3C)cs2)c1` returned an IC50 of 17 nM. This IC50 lies about 3.8-fold lower than the previous one.
